# In US5155106A, “Cysteamine derivatives and antirheumatic agents containing cysteamine derivatives” (Terumo Kabushiki Kaisha, priority 1988, dated 1992):
# System: adjuvant arthritis of Lewis rats
# Experiment: Suppression of adjuvant arthritis in Lewis rats (hind leg sole edema, Mycobacterium butyricum)
# Type: in vivo
# Details: Rattus norvegicus, 432 h, 100 mg/kg oral once a day, 18 days after sensitization; for inhibition in vivo at 100 mg/kg: edema increase vs control group, t-test *P<0.05, **P<0.02, ***P<0.01; for change in vivo at 100 mg/kg: percent increase vs volume before sensitization, control 130.9 ± 5.1 (Table 1), 137.6 ± 15.7 (Table 2), 131.0 ± 10.0 (Table 3), read-out: Increase in volume due to edema
# Description: The compounds according to the present invention obtained in the Examples were evaluated for their effects against adjuvant arthritis (diseased animal model for chronic articular rheumatism) of Lewis rats.
# In the Experiment, five six week old male Lewis rats (body weight, 130 to 160 g) were treated as one group.
# To right hind leg sole of rats from each group was subcutaneously injected with 0.2 mg of dry culture of Mycobacterium butyricum suspended in liquid paraffin. The compounds were suspended in 5% Tween 80, and the suspensions were orally administered to the rats once a day from the day next to the day of sensitization. The rats of both the medicated groups and the control group (non-medicated group) were intermittently measured for their volume of edema in their hind leg sole to examine the effects of the compounds for suppressing the adjuvant arthritis.
# Percent increase in the volume of the hind leg sole due to the edema was calculated on the basis of the volume before sensitization, and suppression was determined by comparing the percent increase of the medicated group with that of the control group.
SMILES,inhibition in vivo at 100 mg/kg,change in vivo at 100 mg/kg
"COc1ccc(C(=O)NC2=NCCS2)c(O)c1 [XIII, 2-(2-hydroxy-4-methoxybenzoylamino)thiazoline]",23.5%,100 ± 3.1%
"COc1ccc(C(=O)NCCS)c(O)c1 [XVII, N-(2-hydroxy-4-methoxybenzoyl)cysteamine]",38.4%,84.8 ± 10.4%
"CCCc1c(OC)ccc(C(=O)N2CCSC2)c1O [XV, N-(2-hydroxy-3-n-propyl-4-methoxybenzoyl)thiazolidine]",27%,95.6 ± 9.6%
"CCCc1c(OC)ccc(C(=O)NCc2cccs2)c1O [XVI, N-(2-hydroxy-3-n-propyl-4-methoxybenzoyl)-2-thiophenemethylamine]",34.4%,85.9 ± 11.1%
"CCCc1c(OC)ccc(C(=O)N2CCSCC2)c1O [XIV, N-(2-hydroxy-3-n-propyl-4-methoxybenzoyl)thiomorpholine]",21.5%,103 ± 10%
"CCCCCCCCSCCNC(=O)c1ccc(OC)cc1O [XIX, 2-(2'-hydroxy-4'-methoxybenzoylamino)ethyl-n-octylsulfide]",41.4%,76.8 ± 17.8%
CCCc1c(OC)ccc(C(=O)NCCS)c1O [XVIII],30.1%,91.6 ± 10.9%
"CCCCCCCCSCCNC(=O)c1ccc(OC)c(CCC)c1O [XX, 2-(2'-hydroxy-3'-n-propyl-4'-methoxybenzoylamino)ethyl-n-octylsulfide]",21.1%,103 ± 8.8%
